Values of other authors as cited in publication PMC9271465 (ESMO Open, 2022).
Read-outs that look alike come from different tables or passages of the source.

Legend:
[1] = test system: EGFR-mutated NSCLC; settings: cited from earlier work
[2] = cited from earlier work
[3] = test system: EGFR T790M+ NSCLC; settings: cited from earlier work
[4] = EGFR T790M+ advanced NSCLC after progression on prior EGFR-TKI
[5] = central nervous system activity
[6] = metastatic EGFR T790M+ NSCLC progressed during or after first-line EGFR-TKI

For `C#Cc1cccc(Nc2ncnc3cc(OCCOC)c(OCCOC)cc23)c1` [erlotinib], the “median overall survival (OS)” value ([1]; EGFR-mutated NSCLC) is listed as 19.3-30.5 months and the “median progression-free survival (PFS)” value ([1]; EGFR-mutated NSCLC) is listed as 9.7-10.8 months.
In the case of `C=CC(=O)Nc1cc(Nc2nccc(-n3cc(CN(C)C)c(-c4ccccc4)n3)n2)c(OC)cc1N1CCOCC1` [lazertinib], the “most common TRAEs” value [2] is listed as “rash/pruritis”.
For `C=CC(=O)Nc1cc(Nc2nccc(-c3cn(C)c4ccccc34)n2)c(OCC(F)(F)F)nc1N(C)CCN(C)C` [furmonertinib], the ORR ([3]; EGFR T790M-mutated NSCLC) is given as 74% and the “median PFS” value ([3]; EGFR T790M-mutated NSCLC) is given as 9.6 months.
For `Cc1cc(C(=O)Nc2nc3cccc(Cl)c3n2[C@@H]2CCCCN(C(=O)/C=C/CN(C)C)C2)ccn1` [nazartinib], the “most common TRAEs” value [2] is given as “rash/diarrhea”.
In the case of `C=CC(=O)Nc1cc(Nc2nccc(-c3cn(C4CC4)c4ccccc34)n2)c(OC)cc1N(C)CCN(C)C` [almonertinib], the “intracranial ORR” value [3, 4] is listed as 60.9%, the “updated ORR” value [3, 4] is listed as 68.9% and the DCR ([3]; phase I trial) is listed as 89%. The ORR ([3]; phase I trial) was 50% and the PFS ([3]; phase I trial) was 9.6 months.
In the case of `C#Cc1cccc(Nc2ncnc3cc4c(cc23)OCCOCCOCCO4)c1` [Icotinib], the “median OS” value [1] is listed as 30.5 months and the “median PFS” value [1] is listed as 11.2 months.
In the case of `C=CC(=O)Nc1cccc(Oc2nc(Nc3ccc(N4CCN(C)CC4)c(F)c3)nc3[nH]ccc23)c1` [abivertinib], the “most common TRAEs” value [2] is given as “rash/diarrhea”.
For `C=CC(=O)Nc1cc(Nc2nccc(-c3cn(C)c4ccccc34)n2)c(OC)cc1N(C)CCN(C)C` [osimertinib], the “intracranial DCR” value [3, 5] is listed as 92%, the “intracranial ORR” value [3, 5] is listed as 54% and the ORR [3, 6] is listed as 61%-71. For the same compound, the “median PFS” value [3, 6] was 9.6-15.2 months.
